Columns and labels:
[1] = target: T1, human recombinant adrenergic α2B receptor (Homo sapiens, UniProt P18089); assay: Adrenergic alpha2B radioligand binding ([3H]Rauwolscine); conditions: compound at 1 μM; read-out: Adrenergic (1 μM) α2B, percent inhibition of specific binding
T1 construct: expressed in transfected cells; host or cells: CHO-K1 cells
T1 sequence (P18089 1-450): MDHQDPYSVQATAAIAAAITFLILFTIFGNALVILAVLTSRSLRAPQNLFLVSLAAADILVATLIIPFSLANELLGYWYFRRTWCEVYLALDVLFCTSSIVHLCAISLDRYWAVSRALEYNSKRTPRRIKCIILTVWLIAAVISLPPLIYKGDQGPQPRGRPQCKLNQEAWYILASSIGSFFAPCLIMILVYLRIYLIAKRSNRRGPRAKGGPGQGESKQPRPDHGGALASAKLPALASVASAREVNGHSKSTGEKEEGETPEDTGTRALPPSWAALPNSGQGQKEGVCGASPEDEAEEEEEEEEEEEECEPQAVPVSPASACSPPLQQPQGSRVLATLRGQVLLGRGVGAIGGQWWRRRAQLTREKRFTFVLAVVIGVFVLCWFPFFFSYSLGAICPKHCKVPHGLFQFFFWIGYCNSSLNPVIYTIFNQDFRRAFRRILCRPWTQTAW
Method: To evaluate in radioligand binding assays the activity of compounds of the invention, human recombinant adrenergic α2B receptor expressed in Chinese hamster ovary (CHO-K1) cells (Uhlen S et al. Eur J. Pharmacol. 343(1):93, 1998) in a modified Tris-HCl buffer (50 mM Tris-HCl, pH 7.4, 12.5 mM MgCl2, 1 mM EDTA, 0.2% BSA) was used. Compounds of the invention were incubated with 2.5 nM [^3H]Rauwolscine for 60 min. at 25° C. Non-specific binding was estimated in the presence of 10 μM Prozosin. Receptor proteins were filtered and washed, the filters were then counted to determine [^3H]Rauwolscine specifically bound. Compounds were screened at 1 μM or lower, using 1% DMSO as vehicle. Biochemical assay results are presented as the percent inhibition of specific binding in Table 5.

[2] = target: T2, human recombinant serotonin (5-Hydroxytryptamine) 5-HT2A receptor (Homo sapiens, UniProt P28223); assay: Serotonin 5-HT2A radioligand binding ([3H]Ketanserin); conditions: compound at 1 μM; read-out: Serotonin (1 μM) 5-HT2A, percent inhibition of specific binding
T2 construct: expressed in transfected cells; host or cells: CHO-K1 cells
Summary of the method: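 Percent inhibition of specific [3H]ketanserin (0.5 nM) binding, filtration read-out, with compounds at ≤1 μM (1% DMSO vehicle). Receptor source: recombinant human 5-HT2A in CHO-K1 cells, 50 mM Tris-HCl pH 7.4, 60 min, 25 °C; 1 μM mianserin gives nonspecific binding.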

[3] = target: T3, human recombinant adrenergic α1D receptor (Homo sapiens, UniProt P25100); assay: Adrenergic alpha1D radioligand binding ([3H]Prozosin); conditions: compound at 1 μM; read-out: Adrenergic (1 μM) α1D, percent inhibition of specific binding
T3 construct: expressed in transfected cells; host or cells: HEK-293 cells
T3 sequence (P25100 1-572): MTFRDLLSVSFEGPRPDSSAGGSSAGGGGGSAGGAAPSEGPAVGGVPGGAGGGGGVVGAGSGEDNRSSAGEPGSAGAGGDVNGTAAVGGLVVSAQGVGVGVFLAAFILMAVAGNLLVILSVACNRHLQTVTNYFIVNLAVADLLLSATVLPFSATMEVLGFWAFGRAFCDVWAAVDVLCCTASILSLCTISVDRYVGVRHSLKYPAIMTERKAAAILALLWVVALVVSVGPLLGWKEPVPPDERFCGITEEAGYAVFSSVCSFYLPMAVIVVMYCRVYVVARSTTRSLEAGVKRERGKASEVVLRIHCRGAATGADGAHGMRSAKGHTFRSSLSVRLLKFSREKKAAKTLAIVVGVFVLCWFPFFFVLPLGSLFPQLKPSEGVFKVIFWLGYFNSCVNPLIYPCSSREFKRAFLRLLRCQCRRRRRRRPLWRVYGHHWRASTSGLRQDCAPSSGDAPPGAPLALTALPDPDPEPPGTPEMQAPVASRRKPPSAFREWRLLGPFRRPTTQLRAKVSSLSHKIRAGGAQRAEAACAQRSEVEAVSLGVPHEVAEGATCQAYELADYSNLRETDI
Method: To evaluate in radioligand binding assays the activity of compounds of the invention, human recombinant adrenergic α1D receptor expressed in human embryonic kidney (HEK-293) cells (Kenny, B. A. et al. Br. J. Pharmacol. 115(6):981, 1995) in a 50 mM Tris-HCl buffer, pH 7.4, was used. Compounds of invention were incubated with 0.6 nM [^3H]Prozosin for 60 min. at 25° C. Non-specific binding was estimated in the presence of 10 μM phentolamine. Receptor proteins were filtered and washed, the filters were then counted to determine [^3H]Prozosin specifically bound. Compounds were screened at 1 μM or lower, using 1% DMSO as vehicle. Biochemical assay results are presented as the percent inhibition of specific binding in Table 5.

T2 sequence (P28223 whole entry): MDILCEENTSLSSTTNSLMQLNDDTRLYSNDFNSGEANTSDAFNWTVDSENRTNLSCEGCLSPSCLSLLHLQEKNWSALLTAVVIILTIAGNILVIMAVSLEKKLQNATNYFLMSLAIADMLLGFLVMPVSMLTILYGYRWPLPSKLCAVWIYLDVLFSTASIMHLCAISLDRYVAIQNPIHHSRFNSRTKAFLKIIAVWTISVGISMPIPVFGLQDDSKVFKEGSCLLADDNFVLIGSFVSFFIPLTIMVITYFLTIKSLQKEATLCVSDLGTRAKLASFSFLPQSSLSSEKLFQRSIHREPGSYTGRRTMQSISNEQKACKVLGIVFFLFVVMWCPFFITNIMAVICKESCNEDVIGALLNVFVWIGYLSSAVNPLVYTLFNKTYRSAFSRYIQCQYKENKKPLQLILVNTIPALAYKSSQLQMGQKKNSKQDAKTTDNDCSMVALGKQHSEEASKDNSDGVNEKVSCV

Row | Structure (SMILES) | inhibition at 1 µM [1] | inhibition at 1 µM [2] | inhibition at 1 µM [3]
1 | Cc1ccc2c(c1)c1c(n2CC(O)c2ccccc2)CCN(C)CC1 (stereo not drawn) [Compound No. 25, 2-(2,3,4,5-tetrahydro-3,9-dimethylazepino[4,5-b]indol-6(1H)-yl)-1-phenylethanol] | 104% | 97% | 96%
2 | Cc1ccc(C(O)Cn2c3c(c4cc(Cl)ccc42)CCN(C)CC3)cc1 (stereo not drawn) [Compound No. 26, 2-(9-chloro-2,3,4,5-tetrahydro-3-methylazepino[4,5-b]indol-6(1H)-yl)-1-p-tolylethanol] | 104% | 100% | 94%
3 | Cc1ccc(C(O)Cn2c3c(c4cc(C)ccc42)CCN(C)CC3)cc1 (stereo not drawn) [Compound No. 27, 2-(2,3,4,5-tetrahydro-3,9-dimethylazepino[4,5-b]indol-6(1H)-yl)-1-p-tolylethanol] | 100% | 99% | 95%
4 | Cc1ccc2c(c1)c1c(n2CCc2ccc(Cl)cc2)CCN(C)CC1 [Compound No. 28, 6-(4-chlorophenethyl)-1,2,3,4,5,6-hexahydro-3,9-dimethylazepino[4,5-b]indole] | 103% | 100% | 94%
5 | CN1CCc2c(n(CCc3ccccc3Cl)c3ccc(Cl)cc23)CC1 [Compound No. 29, 6-(2-chlorophenethyl)-9-chloro-1,2,3,4,5,6-hexahydro-3-methylazepino[4,5-b]indole] | 101% | 100% | 71%
6 | CN1CCc2c(n(CCc3ccc(Cl)cc3)c3ccc(Cl)cc23)CC1 [Compound No. 30, 6-(4-chlorophenethyl)-9-chloro-1,2,3,4,5,6-hexahydro-3-methylazepino[4,5-b]indole] | 100% | 100% | 89%
7 | CC(C)NC(=O)Cn1c2c(c3cc(Cl)ccc31)CCN(C)CC2 [Compound No. 31, 2-(9-chloro-2,3,4,5-tetrahydro-3-methylazepino[4,5-b]indol-6(1H)-yl)-N-isopropylacetamide] | 23% | 43% | 6%
8 | Cc1ccc2c(c1)c1c(n2CC(=O)N2CCCCC2)CCN(C)CC1 [Compound No. 32, 2-(2,3,4,5-tetrahydro-3,9-dimethylazepino[4,5-b]indol-6(1H)-yl)-1-(piperidin-1-yl)ethanone] | 22% | 60% | 4%
9 | C/C(=C\n1c2c(c3cc(C)ccc31)CCN(C)CC2)c1ccc(Cl)cc1 [Compound No. 33, 6-((E)-2-(4-chlorophenyl)prop-1-enyl)-1,2,3,4,5,6-hexahydro-3,9-dimethylazepino[4,5-b]indole] | 103% | 100% | 99%
10 | C/C(=C\n1c2c(c3cc(C)ccc31)CCN(C)CC2)c1ccc(F)cc1 [Compound No. 34, 6-((E)-2-(4-fluorophenyl)prop-1-enyl)-1,2,3,4,5,6-hexahydro-3,9-dimethylazepino[4,5-b]indole] | 110% | 98% | 100%
11 | C=C(Cn1c2c(c3cc(Cl)ccc31)CCN(C)CC2)c1ccc(Cl)cc1 [Compound No. 35, 9-chloro-6-(2-(4-chlorophenyl)allyl)-3-methyl-1,2,3,4,5,6-hexahydroazepino[4,5-b]indole] | 112% | 99% | 96%
12 | C/C(=C\n1c2c(c3cc(Cl)ccc31)CCN(C)CC2)c1ccc(Cl)cc1 [Compound No. 36, 9-chloro-6-((E)-2-(4-chlorophenyl)prop-1-enyl)-1,2,3,4,5,6-hexahydro-3-methylazepino[4,5-b]indole] | 101% | 97% | 95%
13 | CN1CCc2c(n(CC(=O)Nc3ccc(F)cc3)c3ccc(Cl)cc23)CC1 [Compound No. 37, 2-(9-chloro-2,3,4,5-tetrahydro-3-methylazepino[4,5-b]indol-6(1H)-yl)-N-(4-fluorophenyl) acetamide] | 70% | 91% | 14%
14 | Cc1ccc2c(c1)c1c(n2CC(=O)N2CCOCC2)CCN(C)CC1 [Compound No. 38, 2-(2,3,4,5-tetrahydro-3,9-dimethylazepino[4,5-b]indol-6(1H)-yl)-1-morpholinoethanone] | 83% | 96% | 38%
15 | Cc1ccc2c(c1)c1c(n2/C=C/c2ccc(F)cc2)CCN(C)CC1 [Compound No. 39, 6-(4-fluorostyryl)-1,2,3,4,5,6-hexahydro-3,9-dimethylazepino[4,5-b]indole] | 105% | 98% | 99%
16 | CN1CCc2c(n(CC(O)c3ccccc3F)c3ccc(Cl)cc23)CC1 (stereo not drawn) [Compound No. 40, 2-(9-chloro-2,3,4,5-tetrahydro-3-methylazepino[4,5-b]indol-6(1H)-yl)-1-(2-fluorophenyl)ethanol] | 101% | 97% | 64%
17 | Cc1ccc2c(c1)c1c(n2CC(O)c2ccccc2F)CCN(C)CC1 (stereo not drawn) [Compound No. 41, 1-(2-fluorophenyl)-2-(2,3,4,5-tetrahydro-3,9-dimethylazepino[4,5-b]indol-6(1H)-yl)ethanol] | 104% | 99% | 75%
18 | CN1CCc2c(n(CC(O)c3ccncc3)c3ccc(Cl)cc23)CC1 (stereo not drawn) [Compound No. 42, 2-(9-chloro-2,3,4,5-tetrahydro-3-methylazepino[4,5-b]indol-6(1H)-yl)-1-(pyridin-4-yl)ethanol] | 107% | 95% | 73%
19 | Cc1ccc2c(c1)c1c(n2CC(O)c2ccncc2)CCN(C)CC1 (stereo not drawn) [Compound No. 43, 2-(2,3,4,5-tetrahydro-3,9-dimethylazepino[4,5-b]indol-6(1H)-yl)-1-(pyridin-4-yl)ethanol] | 107% | 93% | 70%
20 | Cc1ccc2c(c1)c1c(n2CC(=O)Nc2ccc(F)cc2)CCN(C)CC1 [Compound No. 44, N-(4-fluorophenyl)-2-(2,3,4,5-tetrahydro-3,9-dimethylazepino[4,5-b]indol-6(1H)-yl)acetamide] | 12% | 17% | 10%
21 | Cc1ccc2c(c1)c1c(n2CC(=O)N2CCCC2)CCN(C)CC1 [Compound No. 45, 2-(2,3,4,5-tetrahydro-3,9-dimethylazepino[4,5-b]indol-6(1H)-yl)-1-(pyrrolidin-1-yl)ethanone] | 9% | 22% | 1%
22 | Cc1ccc(CCn2c3c(c4cc(Cl)ccc42)CCN(C)CC3)cc1 [Compound No. 46, 9-chloro-3-methyl-6-(4-methylphenethyl)-1,2,3,4,5,6-hexahydroazepino[4,5-b]indole] | 107% | 100% | 88%

Source: patent publication US9481676B2, “Azepino[4,5-B]indoles and methods of use” (Medivation Technologies, Inc., priority 2008, dated 2016)
